Source: patent publication US20240116856A1 (Young BioPharma, LLC, priority 2020, published 2024)
Several values for one entry are separate records, joined by “and”; a condition that tells them apart may be missing. Equal values may be shown once.

Key:
NCI-H460 = test: Human cancer cell growth inhibition assay (ATP assay), NCI-H460; assay type: cell-based; conditions: Homo sapiens, NCI-H460, 96 h; 4 days; Means±SEM from three independent experiments; read-out: NCl-H460, IC50
human TRPA1 = target: T1, human TRPA1 (Homo sapiens, UniProt O75762); test: In vitro Ca2+ flux counter-screen in human TRPA1 overexpressing cells; assay type: cell-based; conditions: counter-screen; read-out: TRPA1 EC50
T1 construct: expressed in transfected cells; host or cells: overexpressing cells

human TRPV3 = target: T2, human TRPV3 (Homo sapiens, UniProt Q8NET8); test: In vitro Ca2+ flux counter-screen in human TRPV3 overexpressing cells; assay type: cell-based; conditions: counter-screen; read-out: TRPV3 EC50
T2 construct: expressed in transfected cells; host or cells: overexpressing cells
T2 sequence (Q8NET8 1-790): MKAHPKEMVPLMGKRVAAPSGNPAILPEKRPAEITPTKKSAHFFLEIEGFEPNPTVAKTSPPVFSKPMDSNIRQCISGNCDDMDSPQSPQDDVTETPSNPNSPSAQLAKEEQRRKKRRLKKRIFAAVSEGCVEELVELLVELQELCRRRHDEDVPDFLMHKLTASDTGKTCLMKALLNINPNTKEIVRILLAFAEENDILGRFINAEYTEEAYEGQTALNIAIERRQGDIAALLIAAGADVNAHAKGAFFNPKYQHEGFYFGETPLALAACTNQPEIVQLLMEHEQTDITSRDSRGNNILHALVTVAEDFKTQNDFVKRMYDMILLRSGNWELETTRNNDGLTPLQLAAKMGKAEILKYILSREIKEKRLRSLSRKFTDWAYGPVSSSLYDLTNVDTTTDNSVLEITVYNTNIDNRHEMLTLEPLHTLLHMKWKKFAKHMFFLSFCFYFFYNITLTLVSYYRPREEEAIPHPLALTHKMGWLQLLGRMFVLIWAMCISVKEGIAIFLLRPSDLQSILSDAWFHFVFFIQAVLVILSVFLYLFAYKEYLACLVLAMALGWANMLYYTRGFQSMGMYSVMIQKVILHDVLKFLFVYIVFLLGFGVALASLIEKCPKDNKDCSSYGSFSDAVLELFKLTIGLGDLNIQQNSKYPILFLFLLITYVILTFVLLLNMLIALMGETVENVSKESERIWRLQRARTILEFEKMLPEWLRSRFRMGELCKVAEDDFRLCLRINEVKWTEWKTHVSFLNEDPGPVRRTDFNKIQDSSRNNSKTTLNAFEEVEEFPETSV

MDA-MB-231 cell invasion = test: Cancer cell invasion assay, MDA-MB-231; assay type: cell-based, human; conditions: 24 h
Protocol: A cancer cell invasion assay was developed based on literature protocols (Methods 2005, 37, 208; EMBO J 2002, 21, 6289; Cellular Signalling 2012, 24, 1276.). Membrane matrix gel (Cat #A1413201, ThermoFisher) was diluted in ice-cold, serum-free RPMI 1640 Medium (Cat #31800022, ThermoFisher) at a concentration of 0.5-0.6 mg/mL. Then it was added to the upper compartment (100 μL per cup) of millicell inserts (Cat #PI8P01250, ThermoFisher) placed in a 24-well plate (Part no. 229123, Celltreat). The plate was incubated at 37° C. for 2 h to allow the liquid gel to solidify. RPMI 1640 Medium supplemented with 10% FBS (300 μL) was added to the well of the plate (lower compartment) as attractant, then DMSO or compounds were added. Human cancer cells (1×10^5 cells in 200 μL of RPMI 1640 Medium) were added to the upper compartment of the insert, then DMSO or compounds were added. After the plate was incubated at 37° C. for 24 h, the cells were fixed on the lower side of the insert membrane with 4% formaldehyde and stained with 1% crystal violet (Part no. IS12146, Innovating Science). The invaded cells on the lower side of the filter were counted under an inverted microscope equipped with either a 4× or a 10× objective (FIG. 11). The cell numbers from 5 random views were averaged and plotted as percentage against the DMSO control (FIG. 12A).

MDA-MB-231 = test: Human cancer cell growth inhibition assay (ATP assay), MDA-MB-231; assay type: cell-based; conditions: Homo sapiens, MDA-MB-231, 96 h; 4 days; Means±SEM from three independent experiments; read-out: MDA-MB-231, IC50
OVCAR-8 = test: Human cancer cell growth inhibition assay (ATP assay), OVCAR-8; assay type: cell-based; conditions: Homo sapiens, OVCAR-8, 96 h; 4 days; Means±SEM from three independent experiments; read-out: OVCAR-8, IC50
human TRPV1 = target: T3, human TRPV1 (Homo sapiens, UniProt Q8NER1); test: In vitro Ca2+ flux assay in human TRPV1 transfected HEK 293 cells; assay type: cell-based; conditions: Means±SEM from three independent experiments; read-out: TRPV1 EC50
T3 construct: DYK (FLAG) tag from vector pcDNA3.1+/C-(K)DYK (C); host or cells: FreeStyle 293-F cells (HEK 293), transient transfection
T3 sequence (Q8NER1 whole entry): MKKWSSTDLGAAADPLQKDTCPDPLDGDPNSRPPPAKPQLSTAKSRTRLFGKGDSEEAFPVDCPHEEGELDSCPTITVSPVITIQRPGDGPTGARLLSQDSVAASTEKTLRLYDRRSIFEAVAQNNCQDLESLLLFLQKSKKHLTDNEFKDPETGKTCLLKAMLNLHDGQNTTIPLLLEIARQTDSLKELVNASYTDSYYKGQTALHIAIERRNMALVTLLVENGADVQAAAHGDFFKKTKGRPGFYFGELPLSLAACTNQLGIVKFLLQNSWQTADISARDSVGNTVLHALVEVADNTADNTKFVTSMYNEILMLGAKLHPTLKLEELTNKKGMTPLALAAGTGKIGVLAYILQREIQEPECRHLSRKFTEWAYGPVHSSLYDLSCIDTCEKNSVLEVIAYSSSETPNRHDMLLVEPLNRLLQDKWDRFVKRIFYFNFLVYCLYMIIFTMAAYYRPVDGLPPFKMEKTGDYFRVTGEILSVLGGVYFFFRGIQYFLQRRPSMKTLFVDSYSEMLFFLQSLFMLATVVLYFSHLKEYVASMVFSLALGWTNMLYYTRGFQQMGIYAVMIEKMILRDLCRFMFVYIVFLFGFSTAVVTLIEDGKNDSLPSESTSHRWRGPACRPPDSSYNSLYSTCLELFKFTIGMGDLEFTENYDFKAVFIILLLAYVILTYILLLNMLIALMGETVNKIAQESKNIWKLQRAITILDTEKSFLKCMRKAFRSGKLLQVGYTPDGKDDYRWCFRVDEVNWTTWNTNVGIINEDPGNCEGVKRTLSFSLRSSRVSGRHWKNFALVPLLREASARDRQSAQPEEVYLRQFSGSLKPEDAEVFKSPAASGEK

T1 sequence (O75762 whole entry): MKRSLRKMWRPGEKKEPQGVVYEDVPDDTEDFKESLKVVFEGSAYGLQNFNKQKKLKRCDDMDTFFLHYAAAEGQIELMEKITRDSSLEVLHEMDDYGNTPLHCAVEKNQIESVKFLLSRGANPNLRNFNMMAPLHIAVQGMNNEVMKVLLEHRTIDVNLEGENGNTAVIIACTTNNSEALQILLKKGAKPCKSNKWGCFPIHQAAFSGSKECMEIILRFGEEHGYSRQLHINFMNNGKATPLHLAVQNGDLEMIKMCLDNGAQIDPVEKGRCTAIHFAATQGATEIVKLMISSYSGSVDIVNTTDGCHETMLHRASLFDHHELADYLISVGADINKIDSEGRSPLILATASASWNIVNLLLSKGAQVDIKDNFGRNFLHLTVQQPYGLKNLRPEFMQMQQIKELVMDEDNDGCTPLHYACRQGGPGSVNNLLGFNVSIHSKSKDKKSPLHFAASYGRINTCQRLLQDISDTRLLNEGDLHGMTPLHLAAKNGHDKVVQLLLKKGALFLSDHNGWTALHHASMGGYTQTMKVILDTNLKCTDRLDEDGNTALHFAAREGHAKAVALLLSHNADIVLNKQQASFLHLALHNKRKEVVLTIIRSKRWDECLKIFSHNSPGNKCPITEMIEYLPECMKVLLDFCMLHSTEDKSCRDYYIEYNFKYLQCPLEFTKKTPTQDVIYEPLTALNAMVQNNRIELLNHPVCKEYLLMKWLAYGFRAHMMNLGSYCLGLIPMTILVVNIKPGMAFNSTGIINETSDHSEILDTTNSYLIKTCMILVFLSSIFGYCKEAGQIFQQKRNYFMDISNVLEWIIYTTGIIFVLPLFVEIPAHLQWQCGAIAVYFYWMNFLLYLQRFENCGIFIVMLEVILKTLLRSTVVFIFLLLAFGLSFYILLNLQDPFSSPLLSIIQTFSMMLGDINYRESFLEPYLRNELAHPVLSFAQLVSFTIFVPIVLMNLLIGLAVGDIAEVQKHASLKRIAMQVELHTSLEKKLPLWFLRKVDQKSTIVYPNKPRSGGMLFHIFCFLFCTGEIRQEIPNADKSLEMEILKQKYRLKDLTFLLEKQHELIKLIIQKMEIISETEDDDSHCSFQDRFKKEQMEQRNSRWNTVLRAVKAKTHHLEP

| SMILES | IC50 (NCI-H460) [µM] | EC50 (human TRPA1) [µM] | EC50 (human TRPV3) [µM] | inhibition of MDA-MB-231 cell invasion (MDA-MB-231 cell invasion) | IC50 (MDA-MB-231) [µM] | IC50 (OVCAR-8) [µM] | EC50 (human TRPV1) |
| --- | --- | --- | --- | --- | --- | --- | --- |
| COc1cc(CC2=NCC(c3ccccc3)O2)ccc1O (stereo not drawn) [YB-3] | 320 ± 86 | > 10 | > 10 | dose-dependently inhibited | 430 ± 90 | 500 ± 120 | – |
| COc1cc(CC2=NCC(c3ccc(C(F)(F)F)cc3)O2)ccc1O (stereo not drawn) [YB-4] | 270 ± 45 | > 10 | > 10 | dose-dependently inhibited | 469 ± 130 | 300 ± 60 | – |
| COc1cc(CC2=NCC(c3ccc(-c4ccccc4)cc3)O2)ccc1O (stereo not drawn) [YB-5] | 210 ± 48 | > 10 | > 10 | dose-dependently inhibited | 542 ± 101 | 150 ± 42 | – |
| COc1cc(CNC(=O)CCCC/C=C/C(C)C)ccc1NS(C)(=O)=O [YB-6] | 400 ± 46 | > 10 | > 10 | dose-dependently inhibited | 867 ± 72 | 400 ± 51 | – |
| COc1cc(CNC(=O)CCCC/C=C/C(C)C)ccc1N(S(C)(=O)=O)S(C)(=O)=O [YB-7] | 200 ± 49 | > 10 | > 10 | dose-dependently inhibited | 386 ± 107 | 310 ± 45 | – |
| CNc1ccc(CNC(=O)CCCC/C=C/C(C)C)cc1OC [YB-8] | 250 ± 23 | > 10 | > 10 | dose-dependently inhibited | 311 ± 31 | 500 ± 81 | – |
| COc1cc(CC(=O)N/C=C/c2ccc(Cl)cc2)ccc1O [YB-10] | 73 ± 18 | > 10 | > 10 | dose-dependently inhibited | 115 ± 28 | 34 | < 0.1 µM and 0.012 to 0.048 µM |
| COc1cc(CC(=O)N/C=C/c2ccc(-c3ccccc3)cc2)ccc1O [YB-12] | 61 ± 21 | > 10 | > 10 | dose-dependently inhibited | 136 ± 29 | 129 ± 20 | – |
| COCCOCCOCCC(=O)Nc1ccc(CNC(=O)CCCC/C=C/C(C)C)cc1OC [YB-13] | 100 ± 11 | > 10 | > 10 | dose-dependently inhibited | 107 ± 7.5 | 200 ± 16 | – |
| COc1ccc(/C=C/NC(=O)Cc2ccc(O)c(OC)c2)cc1 [YB-14] | > 300 | > 10 | > 10 | – | 300 ± 46 | 500 ± 57 | – |
| COc1cc(CC(=O)N/C=C/c2cccc(C(F)(F)F)c2)ccc1O [YB-15] | > 300 | > 10 | > 10 | – | 250 ± 38 | 101 ± 17 | < 0.1 µM and 0.012 to 0.048 µM |
